Results reported in patent publication US9382188B2, “Aromatic ring compound” (TAKEDA PHARMACEUTICAL COMPANY LIMITED, priority 2012, dated 2016).

The compounds below were run against T1, human GPR40 (Homo sapiens, UniProt O14842) (assay: Evaluation of human GPR40 agonist activity with increase in intracellular Ca2+ concentration as an index (FLIPR Tetra)). Details: test compound 1 μM; CHO(dhfr-) cells stably expressing human GPR40; 100% = activity of 1 μM WO2009/048527 Example 99.2, 0% = DMSO.
T1 construct: expressed in transfected cells
T1 sequence (O14842 whole entry): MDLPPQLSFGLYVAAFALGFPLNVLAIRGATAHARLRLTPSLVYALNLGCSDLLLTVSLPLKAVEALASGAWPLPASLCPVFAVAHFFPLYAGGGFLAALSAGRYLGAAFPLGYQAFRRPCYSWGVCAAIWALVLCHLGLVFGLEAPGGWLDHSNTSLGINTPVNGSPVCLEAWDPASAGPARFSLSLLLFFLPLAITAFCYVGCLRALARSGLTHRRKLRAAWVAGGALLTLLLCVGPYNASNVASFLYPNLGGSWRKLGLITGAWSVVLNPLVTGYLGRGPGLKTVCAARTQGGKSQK
Assay type: cell-based
Method: Evaluation of human GPR40 agonist activity with increase in intracellular Ca^2+ concentration as an index
CHO(dhfr-) cells that stably expressed human GPR40 were suspended in MEMα (Nikken Bio Medical Laboratory) containing 10% dialysis serum (GEMINI BIO-PRODUCTS), 10 mM HEPES (Invitrogen), 100 U/mL penicillin, 100 μg/mL streptomycin (Invitrogen), and plated on a 384 well black/clear cell culture plate at 10,000 cells/well. After culture overnight in a CO2 incubator at 37° C., the culture supernatant was removed, and a loading buffer [dye attached to Calcium 5 Assay Kit (Molecular Devices) was dissolved in an assay buffer (20 mM HEPES, 0.2% fatty acid-free BSA (Sigma-Aldrich), 2.5 mM probenecid (DOJINDO)-containing HBSS (Invitrogen)) added with 0.025% Cremophor EL (DOJINDO)] was added at 37.5 μL/well. After incubation in a CO2 incubator at 37° C. for 1 hr, the cells were stood at room temperature for 15 min, an assay buffer containing the test compound at a final concentration of 1 μM was added at 12.5 μL/well in FLIPR Tetra (Molecular Devices), and the fluorescence amount was successively measured. Human GPR40 agonist activity calculated using an increase in the intracellular Ca^2+ concentration as an index, wherein the activity of 1 μM of the compound described in WO 2009/048527 (WO2009/048527 Example 99.2) was 100%, and the activity when DMSO was added instead of the test compound was 0%.

| activation at 1 µM | Human GPR40 agonist activity (increase in intracellular Ca2+ concentration) | SMILES |
| --- | --- | --- |
| 116% | – | CCCC(C)(C)Cc1cc(OCc2cccc(C(CC(=O)O)C3CC3)c2)ccc1-c1cc(OC)ccc1F (stereo not shown) [Example 105, 3-cyclopropyl-3-(3-(((2-(2,2-dimethylpentyl)-2′-fluoro-5′-methoxybiphenyl-4-yl)oxy)methyl)phenyl)propanoic acid] |
| – | 97% | COc1ccc(F)c(-c2ccc(OCc3cccc(C(CC(=O)O)C4CC4C#N)c3)cc2CC(C)(C)C)c1 (stereo not shown) [Example 91, 3-(2-cyanocyclopropyl)-3-(3-(((2′-fluoro-5′-methoxy-2-neopentyl-[1,1′-biphenyl]-4-yl)oxy)methyl)phenyl)propanoic acid] |
| 21% | – | Cc1cncc(-c2ncc(OCc3cccc(C(CC(=O)O)C4CC4)c3)cc2CC(C)(C)C)c1 (stereo not shown) [Example 63, 3-cyclopropyl-3-(3-(((3-(2,2-dimethylpropyl)-5′-methyl-2,3′-bipyridin-5-yl)oxy)methyl)phenyl)propanoic acid] |
| 57% | – | COc1cncc(-c2ncc(OCc3cccc(C(CC(=O)O)C4CC4)c3)cc2CC(C)(C)C)c1 (stereo not shown) [Example 66, 3-cyclopropyl-3-(3-(((3-(2,2-dimethylpropyl)-5′-methoxy-2,3′-bipyridin-5-yl)oxy)methyl)phenyl)propanoic acid] |
| 94% | – | COc1ccc(F)c(-c2ccc(OCc3cccc(C(CCCC#N)CC(=O)O)c3)cc2CC(C)(C)C)c1 (stereo not shown) [Example 89, 6-cyano-3-(3-(((2′-fluoro-5′-methoxy-2-neopentyl-[1,1′-biphenyl]-4-yl)oxy)methyl)phenyl)hexanoic acid] |
| 123% | – | CC(C)(C)Cc1cc(OCc2cccc(C(CC(=O)O)C3CC3)c2)cnc1-c1cc(O)ccc1F (stereo not shown) [Example 73, 3-cyclopropyl-3-(3-(((5-(2,2-dimethylpropyl)-6-(2-fluoro-5-hydroxyphenyl)pyridin-3-yl)oxy)methyl)phenyl)propanoic acid] |
| 1% | – | COCCCOc1ccc(F)c(-c2ncc(OCc3cccc(C(CC(=O)O)C4CC4)c3)cc2CC(C)(C)C)c1 (stereo not shown) [Example 72, 3-cyclopropyl-3-(3-(((5-(2,2-dimethylpropyl)-6-(2-fluoro-5-(3-methoxypropoxy)phenyl)pyridin-3-yl)oxy)methyl)phenyl)propanoic acid] |
| 118% | – | COc1ccc(F)c(-c2ccc(OCc3cccc(C(CC(=O)O)C(C)C)c3)cc2CC(C)(C)C)c1 (stereo not shown) [Example 78, 3-(3-(((2′-fluoro-5′-methoxy-2-neopentyl-[1,1′-biphenyl]-4-yl)oxy)methyl)phenyl)-4-methylpentanoic acid] |
| 100% | – | COc1ccc(F)c(-c2ccc(OCc3cccc(C(CC(=O)O)C4CC4)c3)cc2CC2(C#N)CCC2)c1 (stereo not shown) [Example 102, 3-(3-(((2-((1-cyanocyclobutyl)methyl)-2′-fluoro-5′-methoxybiphenyl-4-yl)oxy)methyl)phenyl)-3-cyclopropylpropanoic acid] |
| 106% | – | COc1cc(-c2ncc(OCc3cccc(C(CC(=O)O)C4CC4)c3)cc2CC(C)(C)C)c(F)cn1 (stereo not shown) [Example 57, 3-cyclopropyl-3-(3-(((3-(2,2-dimethylpropyl)-5′-fluoro-2′-methoxy-2,4′-bipyridin-5-yl)oxy)methyl)phenyl)propanoic acid] |
| 0% | – | CC(C)(C)Cc1cc(OCc2cccc(C(CC(=O)O)C3CC3)c2)cnc1-c1cccc(C(=O)O)c1 (stereo not shown) [Example 51, 3-(5-((3-(2-carboxy-1-cyclopropylethyl)benzyl)oxy)-3-(2,2-dimethylpropyl)pyridin-2-yl)benzoic acid] |
| 113% | – | COc1ccc(F)c(-c2ccc(OCc3cccc(C(CC(=O)O)C4CC4)c3)cc2CCC(C)(C)OC)c1 (stereo not shown) [Example 92, 3-cyclopropyl-3-(3-(((2′-fluoro-5′-methoxy-2-(3-methoxy-3-methylbutyl)biphenyl-4-yl)oxy)methyl)phenyl)propanoic acid] |
| 126% | – | CCC(C)(C)C(F)c1cc(OCc2cccc(C(CC(=O)O)C3CC3)c2)ccc1-c1cc(OC)ccc1F (stereo not shown) [Example 107, 3-cyclopropyl-3-(3-(((2′-fluoro-2-(1-fluoro-2,2-dimethylbutyl)-5′-methoxybiphenyl-4-yl)oxy)methyl)phenyl)propanoic acid] |
| 8% | – | CC(C)(C)Cc1cc(OCc2cccc(C(CC(=O)O)C3CC3)c2)cnc1-c1cccc(S(=O)(=O)N2CCOCC2)c1 (stereo not shown) [Example 67, 3-cyclopropyl-3-(3-(((5-(2,2-dimethylpropyl)-6-(3-(morpholin-4-ylsulfonyl)phenyl)pyridin-3-yl)oxy)methyl)phenyl)propanoic acid] |

The next lines start with the compound.

| SMILES | activation at 1 µM | Human GPR40 agonist activity (increase in intracellular Ca2+ concentration) |
| --- | --- | --- |
| COc1ccc(F)c(-c2ccc(OCc3cccc(C(CC(=O)O)C4CC4)c3)c(CCCC(C)(C)C)c2)c1 (stereo not shown) [Example 21, 3-cyclopropyl-3-(3-(((3-(4,4-dimethylpentyl)-2′-fluoro-5′-methoxybiphenyl-4-yl)oxy)methyl)phenyl)propanoic acid] | 103% | – |
| COc1ccc(F)c(-c2ccc(C(F)Cc3cccc(CCC(=O)O)c3)nc2CC(C)(C)C)c1 (stereo not shown) [Example 36, 3-(3-(2-(6-(2,2-dimethylpropyl)-5-(2-fluoro-5-methoxyphenyl)pyridin-2-yl)-2-fluoroethyl)phenyl)propanoic acid] | 102% | – |
| COc1ccc(F)c(-c2ccc(OCc3cc(C(CC(=O)O)C4CC4)ncn3)cc2CC(C)(C)C)c1 (stereo not shown) [Example 31, 3-cyclopropyl-3-(6-(((2-(2,2-dimethylpropyl)-2′-fluoro-5′-methoxybiphenyl-4-yl)oxy)methyl)pyrimidin-4-yl)propanoic acid] | 108% | – |
| COc1ccc(F)c(-c2ccc(OCc3cccc(C(CC(=O)O)C4CC4)c3)cc2-c2ccc(C#N)s2)c1 (stereo not shown) [Example 28, 3-(3-(((2-(5-cyano-2-thienyl)-2′-fluoro-5′-methoxybiphenyl-4-yl)oxy)methyl)phenyl)-3-cyclopropylpropanoic acid] | 95% | – |
| COc1ccc(F)c(-c2ccc(OCc3cccc(C(CC(=O)O)C4CCCC4)c3)cc2CC(C)(C)C)c1 (stereo not shown) [Example 39, 3-cyclopentyl-3-(3-(((2-(2,2-dimethylpropyl)-2′-fluoro-5′-methoxybiphenyl-4-yl)oxy)methyl)phenyl)propanoic acid] | 105% | – |
| COc1ccc(F)c(-c2ccc(OCc3cccc(CCC(=O)O)c3)cc2CC(C)(C)C)c1 [Example 7, 3-(3-(((2-(2,2-dimethylpropyl)-2′-fluoro-5′-methoxybiphenyl-4-yl)oxy)methyl)phenyl)propanoic acid] | 108% | – |
| COc1ccc(F)c(-c2ccc(OCc3cccc(OCC(=O)O)c3)nc2CC(C)(C)C)c1 [Example 1, (3-(((6-(2,2-dimethylpropyl)-5-(2-fluoro-5-methoxyphenyl)pyridin-2-yl)oxy)methyl)phenoxy)acetic acid] | 98% | – |
| COc1ccc(F)c(-c2ccc(OCc3cccc(C(CC(=O)O)C4CC4)c3)cc2OC(C)(C)C)c1 (stereo not shown) [Example 74, 3-(3-(((2-tert-butoxy-2′-fluoro-5′-methoxybiphenyl-4-yl)oxy)methyl)phenyl)-3-cyclopropylpropanoic acid] | 104% | – |
| COc1ccc(F)c(-c2ccc(OCc3cc(C(CC(=O)O)C4CC4)ccn3)cc2CC(C)(C)C)c1 (stereo not shown) [Example 24, 3-cyclopropyl-3-(2-(((2-(2,2-dimethylpropyl)-2′-fluoro-5′-methoxybiphenyl-4-yl)oxy)methyl)pyridin-4-yl)propanoic acid] | 106% | – |
| COc1ccc(F)c(-c2ccc(NCc3cccc(C(CC(=O)O)C4CC4)c3)cc2CC(C)(C)C)c1 (stereo not shown) [Example 8, 3-cyclopropyl-3-(3-(((2-(2,2-dimethylpropyl)-2′-fluoro-5′-methoxybiphenyl-4-yl)amino)methyl)phenyl)propanoic acid] | 98% | – |
| CC(C)(C)Cc1cc(OCc2cccc(C(CC(=O)O)C3CC3)c2)cnc1-c1ccccc1 (stereo not shown) [Example 45, 3-cyclopropyl-3-(3-(((5-(2,2-dimethylpropyl)-6-phenylpyridin-3-yl)oxy)methyl)phenyl)propanoic acid] | 55% | – |
| COc1ccc(F)c(-c2ccc(OCc3cccc(C(CC(=O)O)C4CC4)c3)nc2CC(C)(C)C)c1 (stereo not shown) [Example 6, sodium 3-cyclopropyl-3-(3-(((6-(2,2-dimethylpropyl)-5-(2-fluoro-5-methoxyphenyl)pyridin-2-yl)oxy)methyl)phenyl)propanoate] | – | 98% |
| COc1ccc(F)c(-c2ccc(OCc3cccc(C(CC(=O)O)C4CC4)c3)cc2CC(C)(C)C#N)c1 (stereo not shown) [Example 26, 3-(3-(((2-(2-cyano-2-methylpropyl)-2′-fluoro-5′-methoxybiphenyl-4-yl)oxy)methyl)phenyl)-3-cyclopropylpropanoic acid] | 105% | – |
| COc1ccc(F)c(-c2ccc(OCc3cccc(C(CC(=O)O)C4CC4)c3)cc2OCC(C)(C)C)c1 (stereo not shown) [Example 38, 3-cyclopropyl-3-(3-(((2-(2,2-dimethylpropoxy)-2′-fluoro-5′-methoxybiphenyl-4-yl)oxy)methyl)phenyl)propanoic acid] | 111% | – |
